The structures appear in SMILES notation.

Data set [1] can be described thus: Alamar blue toxicity assay (FIG. 1). Format: cell-based. The following applies: below concentrations of 100 μM. The procedure:
(§1) The hyaluronan synthase activity (Prehm, P. and Schumacher, U., Biochem. Pharmacol. 2004, 68, 1401-1410), the cytotoxicity of the drugs (O'Brien, J. et al., Eur. J. Biochem. 2000, 267, 5421-5426), proteoglycan synthesis rate, hyaluronan (Prehm, P. J. Rheumatol., 2005, 32, 690-696) and proteoglycan (Bjornsson, S. Anal. Biochem. 1993, 210, 282-291) were determined as described. The effect of the prenylflavonoids on the MRP5 export rate was measured with fluorescein diacetate as described (Schulz, T., Schumacher, U., and Prehm, P., J Biol. Chem., 2007, 282, 20999-21004). The determination of the IC50 values on the phosphodiesterase 5 was performed according to the instructions of BPS Bioscience. The culture of bovine chondrocytes in alginate beads and of explants of bovine cartilage was described previously (Deiters, B. and Prehm, P. Arthritis Res. Ther., 2008, 10, R8; Prehm, P. J. Rheumatol. 2005, 32, 690-696). Osteoarthritic reactions were induced in chondrocytes growing in alginate beads by incubation with medium containing 10 ng/ml of II-17 for 6 days, and in cartilage explants with 10 ng/ml of II-17 and 5 ng/ml of II-1α. The supernatants were withdrawn and stored at −20° C. for later analysis. The explants were weighed and extracted with 1 ml of 4 M guanidinium-HCl for 72 hours at 4° C. The proteoglycan concentrations were determined in the extracts.
The toxicity was determined by the Alamar blue assay.
(In general: Resazurin is reduced to fluorescent resorufin, in cell work by metabolically active cells.)

Another data set has as its system Str/ort mice. The data set is described as follows: Micro-CT of tibial trabecular and cortical bone in Str/ort mice. Format: in vivo, mouse. The following applies: 10-90% of total tibial length, vs vehicle.
The test system of a further data set is fibroblasts. The data set is described as follows: Alamar blue staining of fibroblasts. The following applies: Fibroblast. The format is cell-based. The procedure: as §1
Data set [2] relates to chondrosarcoma cells (SW1353). The data set can be described thus: Alamar blue staining of chondrosarcoma. The format is cell-based. The following applies: Homo sapiens. The procedure: as §1
Chondrosarcoma cells (SW1353 from the American Type Culture Collection) were grown in Dulbecco's medium supplemented with streptomycin/penicillin (100 units of each/ml), 10% foetal calf serum or in serum free Quantum medium supplemented with streptomycin/penicillin (100 units of each/ml), kanamycin (100 units/ml).

For data set [3], the system named is hyaluronan export from chondrosarcoma cells. The data set is described as follows: Inhibition of hyaluronan export / production in chondrosarcoma cells. Format: cell-based. The procedure: as §1
Chondrosarcoma cells were plated on a 96 well microtiter plate and in the presence of increasing flavonoid concentrations. After 2 days the concentration of hyaluronan was determined in the culture supernatant.

A word on the IC50: it is the concentration that gives 50% inhibition. In the case of `COc1cc(O)c(CC=C(C)C)c(O)c1C(=O)/C=C/c1ccc(OC(=O)C[N+](C)(C)C)cc1.[Cl-]` [Xantho-betaine, (E)-2-(4-(3-(2,4-dihydroxy-6-methoxy-3-(3-methylbut-2-en-1-yl)phenyl)-3-oxoprop-1-en-1-yl)phenoxy)-N,N,N-trimethyl-2-oxoethanaminium chloride], the “toxicity in Alamar blue assay” value in data set [1] is listed as “not toxic”. Also, in the data set with Str/ort mice, the “effect on cortical bone (overall)” value is “significantly alter”. In addition, the IC50 in the data set on fibroblasts was found to be 80 µM; in data set [2] it was 275 µM; in data set [3], 18 µM. Further, the “inhibition of hyaluronan export” value in data set [3] (culture supernatant after 2 days, comparison with parent compound, particularly below 3 μM) is reported as “slightly less effective than xanthohumol”.

The values above are taken from patent US20250017888A1, “COMPOUNDS FOR TREATING DISEASES ASSOCIATED WITH HYALURONAN OVERPRODUCTION” (THE ROYAL VETERINARY COLLEGE, priority 2021, published 2025).
